The target of test [1] is T1, 3-phosphoinositide-dependent protein kinase 1 (Homo sapiens) (UniProt O15530).
T1 sequence (whole entry): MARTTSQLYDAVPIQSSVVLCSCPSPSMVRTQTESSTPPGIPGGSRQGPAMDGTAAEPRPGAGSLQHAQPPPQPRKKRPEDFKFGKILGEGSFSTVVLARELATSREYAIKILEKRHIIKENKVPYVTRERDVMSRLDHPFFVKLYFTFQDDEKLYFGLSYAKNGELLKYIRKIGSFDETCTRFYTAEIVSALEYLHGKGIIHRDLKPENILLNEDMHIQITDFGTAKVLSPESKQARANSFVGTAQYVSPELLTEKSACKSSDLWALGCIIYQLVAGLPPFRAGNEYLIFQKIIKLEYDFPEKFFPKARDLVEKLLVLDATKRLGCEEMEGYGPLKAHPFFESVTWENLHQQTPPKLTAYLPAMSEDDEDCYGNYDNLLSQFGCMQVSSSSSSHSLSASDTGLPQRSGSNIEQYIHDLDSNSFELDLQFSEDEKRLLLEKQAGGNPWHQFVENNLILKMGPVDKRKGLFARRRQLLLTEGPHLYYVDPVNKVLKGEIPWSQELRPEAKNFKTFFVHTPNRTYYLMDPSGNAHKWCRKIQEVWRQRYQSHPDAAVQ
Briefly: Inhibition of human PDPK1 at 18.6 nM by HotSpot assay relative to control.

For test [2], the target named is T2, Mitogen-activated protein kinase kinase kinase kinase 2 (Homo sapiens) (UniProt Q12851).
T2 sequence (whole entry): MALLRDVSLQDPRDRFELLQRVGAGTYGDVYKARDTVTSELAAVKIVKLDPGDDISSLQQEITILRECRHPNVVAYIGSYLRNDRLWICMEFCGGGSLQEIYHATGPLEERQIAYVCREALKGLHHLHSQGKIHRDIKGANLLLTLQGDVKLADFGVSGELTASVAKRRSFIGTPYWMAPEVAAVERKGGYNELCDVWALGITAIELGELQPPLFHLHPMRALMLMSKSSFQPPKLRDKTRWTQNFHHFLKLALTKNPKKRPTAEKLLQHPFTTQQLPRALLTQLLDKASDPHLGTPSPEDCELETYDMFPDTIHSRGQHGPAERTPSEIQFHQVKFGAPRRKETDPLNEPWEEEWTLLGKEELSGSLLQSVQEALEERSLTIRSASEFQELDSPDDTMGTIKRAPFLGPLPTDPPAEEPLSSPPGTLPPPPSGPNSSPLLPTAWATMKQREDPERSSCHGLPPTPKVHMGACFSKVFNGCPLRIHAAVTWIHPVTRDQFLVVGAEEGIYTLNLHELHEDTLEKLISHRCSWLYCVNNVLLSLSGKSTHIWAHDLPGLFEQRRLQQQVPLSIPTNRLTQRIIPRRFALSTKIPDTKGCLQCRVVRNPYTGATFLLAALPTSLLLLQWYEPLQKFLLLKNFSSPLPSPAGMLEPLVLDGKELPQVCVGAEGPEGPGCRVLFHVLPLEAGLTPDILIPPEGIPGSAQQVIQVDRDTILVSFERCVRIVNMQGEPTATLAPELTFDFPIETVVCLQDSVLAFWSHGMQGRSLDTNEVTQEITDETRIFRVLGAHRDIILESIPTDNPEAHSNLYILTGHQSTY
Put plainly: Inhibition of human GCK at 18.6 nM by HotSpot assay relative to control.

For test [3], the target named is G protein-coupled receptor kinase 5 (Homo sapiens) (UniProt P34947). Put plainly: Inhibition of human GRK5 at 18.6 nM by HotSpot assay relative to control.
Test [4] concerns the target Mitogen-activated protein kinase kinase kinase 9 (Homo sapiens) (UniProt P80192). Briefly: Inhibition of human MAP3K9 at 18.6 nM by HotSpot assay relative to control.
Test [5] deals with Serine/threonine-protein kinase OSR1 (Homo sapiens) (UniProt O95747). Briefly: Inhibition of human OXSR1 at 18.6 nM by HotSpot assay relative to control.
Test [6] has as its target T3, TGF-beta receptor type-1 (Homo sapiens) (UniProt P36897).
T3 sequence (whole entry): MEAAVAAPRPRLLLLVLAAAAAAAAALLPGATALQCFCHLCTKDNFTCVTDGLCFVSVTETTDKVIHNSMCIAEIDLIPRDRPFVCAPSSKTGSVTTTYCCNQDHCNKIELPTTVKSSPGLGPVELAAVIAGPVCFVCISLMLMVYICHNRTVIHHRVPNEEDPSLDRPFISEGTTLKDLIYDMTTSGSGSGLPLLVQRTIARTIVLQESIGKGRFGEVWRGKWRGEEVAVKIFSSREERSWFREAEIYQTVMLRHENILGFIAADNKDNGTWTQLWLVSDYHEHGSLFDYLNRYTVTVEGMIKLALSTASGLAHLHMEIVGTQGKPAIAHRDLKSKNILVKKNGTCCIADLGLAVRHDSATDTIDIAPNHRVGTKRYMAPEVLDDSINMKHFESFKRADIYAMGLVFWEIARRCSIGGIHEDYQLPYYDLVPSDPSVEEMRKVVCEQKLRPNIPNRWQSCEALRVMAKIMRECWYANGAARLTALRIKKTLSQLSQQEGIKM
Put plainly: Inhibition of human ALK5 at 18.6 nM by HotSpot assay relative to control.

Test [7] has as its target Tyrosine-protein kinase Fes/Fps (Homo sapiens) (UniProt P07332). Briefly: Inhibition of human FES at 1.82 nM by HotSpot assay relative to control.
In test [8] the target is T4, Tyrosine-protein kinase ZAP-70 (Homo sapiens) (UniProt P43403).
T4 sequence (whole entry): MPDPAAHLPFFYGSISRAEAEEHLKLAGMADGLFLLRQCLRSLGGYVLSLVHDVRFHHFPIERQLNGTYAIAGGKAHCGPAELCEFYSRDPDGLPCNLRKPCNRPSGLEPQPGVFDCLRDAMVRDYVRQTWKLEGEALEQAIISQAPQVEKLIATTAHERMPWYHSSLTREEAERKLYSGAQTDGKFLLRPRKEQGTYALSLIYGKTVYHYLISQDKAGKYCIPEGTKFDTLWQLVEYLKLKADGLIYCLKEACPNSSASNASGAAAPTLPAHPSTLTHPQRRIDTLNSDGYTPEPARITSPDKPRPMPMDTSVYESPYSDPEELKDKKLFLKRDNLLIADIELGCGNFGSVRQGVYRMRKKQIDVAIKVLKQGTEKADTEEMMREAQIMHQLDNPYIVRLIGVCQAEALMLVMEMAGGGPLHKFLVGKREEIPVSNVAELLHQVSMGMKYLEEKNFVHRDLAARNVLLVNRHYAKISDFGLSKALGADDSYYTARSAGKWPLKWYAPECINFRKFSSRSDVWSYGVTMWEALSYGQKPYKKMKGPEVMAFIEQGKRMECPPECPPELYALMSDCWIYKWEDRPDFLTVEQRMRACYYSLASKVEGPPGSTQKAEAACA
Briefly: Inhibition of human ZAP70 at 1.82 nM by HotSpot assay relative to control.

Here are results for two compounds from ChEMBL document CHEMBL5653615 (J Biol Chem, 2013).

Molecules are shown by their SMILES.

Chain of Tyrosine-protein kinase Fes/Fps (Homo sapiens) (P07332 whole entry): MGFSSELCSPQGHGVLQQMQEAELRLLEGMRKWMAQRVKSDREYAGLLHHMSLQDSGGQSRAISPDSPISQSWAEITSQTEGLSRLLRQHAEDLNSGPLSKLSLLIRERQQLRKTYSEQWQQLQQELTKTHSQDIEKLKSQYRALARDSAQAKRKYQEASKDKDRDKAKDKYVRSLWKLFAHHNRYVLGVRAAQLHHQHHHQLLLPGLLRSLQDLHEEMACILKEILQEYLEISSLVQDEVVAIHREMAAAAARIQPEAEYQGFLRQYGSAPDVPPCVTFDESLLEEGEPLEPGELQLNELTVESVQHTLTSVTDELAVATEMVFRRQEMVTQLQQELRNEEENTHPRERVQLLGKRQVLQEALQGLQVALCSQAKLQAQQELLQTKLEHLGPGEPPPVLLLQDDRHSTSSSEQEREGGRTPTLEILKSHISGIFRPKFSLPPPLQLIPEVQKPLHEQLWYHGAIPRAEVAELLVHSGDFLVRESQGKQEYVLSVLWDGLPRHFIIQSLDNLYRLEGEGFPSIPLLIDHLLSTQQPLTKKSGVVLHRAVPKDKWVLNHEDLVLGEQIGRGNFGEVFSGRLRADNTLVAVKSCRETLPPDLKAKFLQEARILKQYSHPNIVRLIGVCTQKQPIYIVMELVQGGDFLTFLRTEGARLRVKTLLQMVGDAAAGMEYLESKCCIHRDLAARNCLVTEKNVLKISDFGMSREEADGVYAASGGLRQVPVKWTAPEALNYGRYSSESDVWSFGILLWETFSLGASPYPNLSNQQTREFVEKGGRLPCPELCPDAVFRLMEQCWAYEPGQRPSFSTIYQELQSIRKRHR
Chain of Serine/threonine-protein kinase OSR1 (Homo sapiens) (O95747 whole entry, looked up): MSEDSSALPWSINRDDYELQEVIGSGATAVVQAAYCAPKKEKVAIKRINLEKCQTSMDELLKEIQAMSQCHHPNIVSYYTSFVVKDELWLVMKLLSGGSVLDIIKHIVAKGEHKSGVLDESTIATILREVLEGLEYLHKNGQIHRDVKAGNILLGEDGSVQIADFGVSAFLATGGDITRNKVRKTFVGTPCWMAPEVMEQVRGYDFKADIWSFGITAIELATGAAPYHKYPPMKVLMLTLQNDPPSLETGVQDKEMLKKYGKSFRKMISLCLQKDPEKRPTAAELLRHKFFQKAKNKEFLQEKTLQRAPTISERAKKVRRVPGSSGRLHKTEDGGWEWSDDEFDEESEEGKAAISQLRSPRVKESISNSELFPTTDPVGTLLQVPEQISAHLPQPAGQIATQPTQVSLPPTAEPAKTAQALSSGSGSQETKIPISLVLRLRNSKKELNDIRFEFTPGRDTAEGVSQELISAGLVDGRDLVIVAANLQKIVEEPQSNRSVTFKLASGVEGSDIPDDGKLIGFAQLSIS
Chain of Mitogen-activated protein kinase kinase kinase 9 (Homo sapiens) (P80192 whole entry, looked up): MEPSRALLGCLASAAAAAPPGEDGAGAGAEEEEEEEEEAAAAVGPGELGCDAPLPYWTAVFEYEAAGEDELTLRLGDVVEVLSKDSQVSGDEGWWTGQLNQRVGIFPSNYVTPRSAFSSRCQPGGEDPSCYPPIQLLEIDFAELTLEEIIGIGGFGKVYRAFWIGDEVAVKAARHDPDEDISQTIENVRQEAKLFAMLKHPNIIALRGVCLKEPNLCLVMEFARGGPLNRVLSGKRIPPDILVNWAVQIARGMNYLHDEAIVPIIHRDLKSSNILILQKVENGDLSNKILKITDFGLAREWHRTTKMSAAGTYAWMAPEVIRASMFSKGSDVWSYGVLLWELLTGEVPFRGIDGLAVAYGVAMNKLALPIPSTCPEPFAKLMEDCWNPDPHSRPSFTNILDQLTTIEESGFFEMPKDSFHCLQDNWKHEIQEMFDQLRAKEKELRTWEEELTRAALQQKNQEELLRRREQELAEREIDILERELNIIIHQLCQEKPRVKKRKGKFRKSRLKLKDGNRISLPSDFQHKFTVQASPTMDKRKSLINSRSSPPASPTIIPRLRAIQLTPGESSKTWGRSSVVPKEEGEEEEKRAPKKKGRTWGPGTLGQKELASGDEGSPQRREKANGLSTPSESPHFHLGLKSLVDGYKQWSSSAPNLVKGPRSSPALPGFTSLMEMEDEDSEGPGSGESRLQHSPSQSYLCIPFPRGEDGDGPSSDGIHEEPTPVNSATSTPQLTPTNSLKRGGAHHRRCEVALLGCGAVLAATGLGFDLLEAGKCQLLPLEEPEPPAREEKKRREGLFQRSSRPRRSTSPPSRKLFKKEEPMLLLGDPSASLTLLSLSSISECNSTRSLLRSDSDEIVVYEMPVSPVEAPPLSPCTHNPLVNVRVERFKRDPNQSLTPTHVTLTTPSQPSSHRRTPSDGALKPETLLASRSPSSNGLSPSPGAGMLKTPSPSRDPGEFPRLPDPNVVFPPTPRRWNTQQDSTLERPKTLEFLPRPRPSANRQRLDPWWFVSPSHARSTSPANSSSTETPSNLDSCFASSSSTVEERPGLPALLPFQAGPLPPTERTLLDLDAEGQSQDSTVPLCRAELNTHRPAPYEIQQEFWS
Chain of G protein-coupled receptor kinase 5 (Homo sapiens) (P34947 whole entry, looked up): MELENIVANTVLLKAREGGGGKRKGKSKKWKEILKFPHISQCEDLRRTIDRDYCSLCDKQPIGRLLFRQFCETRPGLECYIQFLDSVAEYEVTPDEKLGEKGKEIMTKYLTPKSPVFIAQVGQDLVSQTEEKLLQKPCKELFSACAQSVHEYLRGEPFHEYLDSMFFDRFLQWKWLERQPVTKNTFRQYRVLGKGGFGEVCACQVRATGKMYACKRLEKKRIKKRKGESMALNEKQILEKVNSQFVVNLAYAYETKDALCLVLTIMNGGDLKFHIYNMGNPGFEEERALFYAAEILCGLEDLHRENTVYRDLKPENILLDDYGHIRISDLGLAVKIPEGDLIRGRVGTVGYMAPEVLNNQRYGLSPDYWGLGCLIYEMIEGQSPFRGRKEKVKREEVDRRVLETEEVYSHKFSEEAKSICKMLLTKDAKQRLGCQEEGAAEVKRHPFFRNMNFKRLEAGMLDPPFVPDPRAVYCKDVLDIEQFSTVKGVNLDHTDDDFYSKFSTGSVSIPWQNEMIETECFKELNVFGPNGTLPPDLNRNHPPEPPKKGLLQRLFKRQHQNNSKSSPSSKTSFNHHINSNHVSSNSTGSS

As to `C[C@]1(O)C[C@@H](c2nc(-c3ccc4ccc(-c5ccccc5)nc4c3)c3c(N)nccn32)C1`, the inhibition in test [1] was -0.41%; in test [2], 1.94%; in test [3] it was -6.77%; in test [4] it was -2.33%; in test [5], -6.49%; in test [6], 2.47%.

For `C[C@@]1(C(=O)Nc2ccc(F)nc2)CCCN1c1nc(Nc2cc(C3CC3)n[nH]2)c2cccn2n1`, the inhibition is 5.24% in test [7] and -2.24% in test [8].

As a reminder, the inhibition is the drop in the measured response relative to a control, in per cent.
